# ChEMBL document CHEMBL1142528 (J Med Chem, 2008)
# Tests used:
# [1] = biological target: 5-hydroxytryptamine receptor 2A (Homo sapiens, UniProt P28223); assay: Displacement of [3H]ketanserin from 5HT2A receptor expressed in NIH3T3 cells; format: cell-based
# [2] = biological target: Sodium-dependent noradrenaline transporter (Homo sapiens, UniProt P23975); assay: Displacement of [3H]nisoxitine from NET
# D(2) dopamine receptor = D(2) dopamine receptor (Homo sapiens, UniProt P14416); assay: Displacement of [3H]spiperone from dopamine D2 receptor
# Sequence of D(2) dopamine receptor (P14416 whole entry): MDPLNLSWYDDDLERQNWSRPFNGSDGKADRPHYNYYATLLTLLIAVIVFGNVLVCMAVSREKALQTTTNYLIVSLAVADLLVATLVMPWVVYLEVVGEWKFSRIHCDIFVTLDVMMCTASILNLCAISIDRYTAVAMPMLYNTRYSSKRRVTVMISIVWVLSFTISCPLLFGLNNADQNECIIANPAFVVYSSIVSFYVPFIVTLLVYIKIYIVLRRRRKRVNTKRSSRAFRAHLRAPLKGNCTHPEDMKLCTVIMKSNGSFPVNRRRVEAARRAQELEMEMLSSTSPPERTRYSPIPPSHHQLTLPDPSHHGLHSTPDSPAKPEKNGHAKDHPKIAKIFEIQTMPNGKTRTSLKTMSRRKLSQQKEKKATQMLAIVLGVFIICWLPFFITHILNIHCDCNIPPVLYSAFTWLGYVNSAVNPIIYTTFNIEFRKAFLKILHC
# [3] = biological target: Sodium-dependent serotonin transporter (Homo sapiens, UniProt P31645); assay: Displacement of [3H]paroxitine from SERT
# Sequence of Sodium-dependent serotonin transporter (P31645 whole entry): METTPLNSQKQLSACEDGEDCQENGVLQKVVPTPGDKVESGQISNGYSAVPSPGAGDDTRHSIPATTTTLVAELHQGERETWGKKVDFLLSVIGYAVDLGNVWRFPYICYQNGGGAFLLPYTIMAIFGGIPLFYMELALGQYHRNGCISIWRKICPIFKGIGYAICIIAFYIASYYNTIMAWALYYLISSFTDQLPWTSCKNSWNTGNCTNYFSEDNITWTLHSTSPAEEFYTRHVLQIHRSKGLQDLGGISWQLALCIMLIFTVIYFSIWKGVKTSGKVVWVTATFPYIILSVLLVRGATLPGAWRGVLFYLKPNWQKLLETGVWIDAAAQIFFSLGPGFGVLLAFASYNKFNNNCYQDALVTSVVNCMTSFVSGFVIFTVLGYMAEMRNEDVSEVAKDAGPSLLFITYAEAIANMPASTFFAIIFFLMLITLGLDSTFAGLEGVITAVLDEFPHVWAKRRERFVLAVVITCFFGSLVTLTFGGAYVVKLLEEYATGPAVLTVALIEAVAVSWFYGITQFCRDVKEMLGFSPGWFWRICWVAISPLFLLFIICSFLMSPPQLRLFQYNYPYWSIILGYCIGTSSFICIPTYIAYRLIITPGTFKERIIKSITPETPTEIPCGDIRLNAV
# [4] = biological target: T1, 5-hydroxytryptamine receptor 2C (Homo sapiens, UniProt P28335); assay: Displacement of [3H]mesulergine from 5HT2C receptor
# T1 sequence (P28335 whole entry): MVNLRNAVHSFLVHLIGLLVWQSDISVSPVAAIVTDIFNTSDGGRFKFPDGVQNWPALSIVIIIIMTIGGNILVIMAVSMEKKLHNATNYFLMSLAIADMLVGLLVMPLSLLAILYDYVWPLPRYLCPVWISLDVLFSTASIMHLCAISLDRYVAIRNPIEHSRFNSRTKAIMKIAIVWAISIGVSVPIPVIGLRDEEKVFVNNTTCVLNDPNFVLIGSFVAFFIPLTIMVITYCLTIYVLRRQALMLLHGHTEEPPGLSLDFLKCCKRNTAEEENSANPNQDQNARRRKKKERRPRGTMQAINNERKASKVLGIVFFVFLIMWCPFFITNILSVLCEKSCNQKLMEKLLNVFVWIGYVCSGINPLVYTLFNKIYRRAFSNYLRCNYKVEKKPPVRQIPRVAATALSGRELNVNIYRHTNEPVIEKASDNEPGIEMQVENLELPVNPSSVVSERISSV
# [5] = biological target: 5-hydroxytryptamine receptor 2A (Homo sapiens, UniProt P28223, F340L); assay: Displacement of [3H]ketanserein from 5HT2A receptor F340L mutant expressed in NIH3T3 cells; format: cell-based
# Sequence of 5-hydroxytryptamine receptor 2A (Homo sapiens, UniProt P28223, F340L) (P28223 whole entry F340L): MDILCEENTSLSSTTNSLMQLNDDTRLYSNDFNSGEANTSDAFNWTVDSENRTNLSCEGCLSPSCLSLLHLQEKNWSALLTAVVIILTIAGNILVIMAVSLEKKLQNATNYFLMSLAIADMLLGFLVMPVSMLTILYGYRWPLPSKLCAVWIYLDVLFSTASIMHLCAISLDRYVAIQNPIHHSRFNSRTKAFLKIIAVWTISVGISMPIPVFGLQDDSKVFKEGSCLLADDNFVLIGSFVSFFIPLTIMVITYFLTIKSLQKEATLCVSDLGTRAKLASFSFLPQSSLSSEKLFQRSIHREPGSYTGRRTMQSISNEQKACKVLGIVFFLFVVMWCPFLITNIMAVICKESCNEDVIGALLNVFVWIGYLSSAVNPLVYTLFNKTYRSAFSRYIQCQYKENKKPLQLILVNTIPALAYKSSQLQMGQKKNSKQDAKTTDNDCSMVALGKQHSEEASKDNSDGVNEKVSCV
# Sequence of 5-hydroxytryptamine receptor 2A (Homo sapiens, UniProt P28223) (P28223 whole entry): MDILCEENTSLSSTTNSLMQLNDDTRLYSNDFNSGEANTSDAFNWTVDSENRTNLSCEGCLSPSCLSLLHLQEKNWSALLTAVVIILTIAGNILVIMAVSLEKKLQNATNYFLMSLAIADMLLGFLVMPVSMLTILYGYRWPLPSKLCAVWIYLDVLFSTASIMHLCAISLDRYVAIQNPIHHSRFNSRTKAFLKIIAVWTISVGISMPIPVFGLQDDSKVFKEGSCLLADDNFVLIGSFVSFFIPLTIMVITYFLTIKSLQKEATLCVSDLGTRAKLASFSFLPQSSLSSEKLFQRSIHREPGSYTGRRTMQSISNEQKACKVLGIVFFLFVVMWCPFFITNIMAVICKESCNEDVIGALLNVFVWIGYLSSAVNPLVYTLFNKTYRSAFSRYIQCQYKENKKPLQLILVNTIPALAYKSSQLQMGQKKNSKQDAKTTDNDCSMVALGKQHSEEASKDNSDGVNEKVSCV
# Sequence of Sodium-dependent noradrenaline transporter (P23975 whole entry): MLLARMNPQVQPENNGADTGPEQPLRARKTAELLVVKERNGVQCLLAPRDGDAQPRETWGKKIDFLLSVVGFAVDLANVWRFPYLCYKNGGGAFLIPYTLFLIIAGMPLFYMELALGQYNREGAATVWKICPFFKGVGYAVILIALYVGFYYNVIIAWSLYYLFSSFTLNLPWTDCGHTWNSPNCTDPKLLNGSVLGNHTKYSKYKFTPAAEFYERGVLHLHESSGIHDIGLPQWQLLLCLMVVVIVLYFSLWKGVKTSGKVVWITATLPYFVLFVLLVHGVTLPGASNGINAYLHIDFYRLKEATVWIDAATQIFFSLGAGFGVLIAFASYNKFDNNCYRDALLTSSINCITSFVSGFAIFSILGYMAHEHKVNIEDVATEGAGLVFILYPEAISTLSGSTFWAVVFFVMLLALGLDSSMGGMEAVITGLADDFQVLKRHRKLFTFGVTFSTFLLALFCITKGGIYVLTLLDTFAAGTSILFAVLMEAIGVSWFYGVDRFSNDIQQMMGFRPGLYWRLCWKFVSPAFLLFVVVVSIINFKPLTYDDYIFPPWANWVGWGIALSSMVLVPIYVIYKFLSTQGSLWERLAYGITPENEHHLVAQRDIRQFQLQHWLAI
SMILES,Ki [1] [nM],other results
COc1cc(CC(C)N)c(OC)cc1O (stereo not drawn),> 50000,–
COc1cc(CC(C)N)c(OC)cc1CCCc1ccccc1 (stereo not drawn),10,–
NCC1c2ccccc2Cc2cc(Br)ccc21 (stereo not drawn),1.3,Ki [2]: 4490 nM; Ki (D(2) dopamine receptor): > 10000 nM; Ki [3]: 1200 nM; Ki [4]: 3.3 nM; Ki [5]: 1.8 nM
CCCCCOc1ccc2c(c1)Cc1ccccc1C2CN (stereo not drawn),23,–
NCC1c2ccccc2Cc2cc(O)ccc21 (stereo not drawn),107,–
CCCCCCc1ccc2c(c1)Cc1ccccc1C2CN (stereo not drawn),7,Ki [2]: 845 nM; Ki (D(2) dopamine receptor): 6280 nM; Ki [3]: 490 nM; Ki [4]: 62 nM
CCCCCCc1ccc(CCN)cc1,78,–
CCCCCCc1ccc(C(CN)c2ccccc2)cc1 (stereo not drawn),200,–
NCC(c1ccccc1)c1ccc(Br)cc1 (stereo not drawn),260,Ki [5]: 3.5 nM
NCC1c2ccccc2Cc2ccccc21,–,Ki [2]: > 10000 nM; Ki (D(2) dopamine receptor): > 10000 nM; Ki [3]: > 10000 nM; Ki [4]: 43 nM
NCC1c2ccccc2Cc2cc(CCCc3ccccc3)ccc21 (stereo not drawn),3.2,–
NCCc1ccc(CCCc2ccccc2)cc1,60,–
NCCc1ccc(Br)cc1,1770,–
COc1cc(OC)c(OC)cc1CC(C)N (stereo not drawn),1200,–
CCCCCCc1cc(OC)c(CC(C)N)cc1OC (stereo not drawn),2.5,–
